Assay results reported in US20100261711A1, “SELECTIVE ANTICONVULSANT AGENTS AND THEIR USES” (WiSys Technology Foundation, priority 2009, published 2010).
“And” between values parts separate entries of the source, which are not always exact repeats. Identical values can stand only once. “Also recorded” adds a separate entry of the source. Marks after values point to notes of the source that are not given here.

Legend:
[1] = tested on: Metrazol-induced clonic seizures; experiment: Tolerance study, 5 day dosing, scMet; type: in vivo, Sprague Dawley rats
Protocol: The dose utilized was the predetermined ED50 against the scMet seizure model. In this model a subcutaneous injection of the convulsant Metrazol is used to produce highly reproducible clonic seizures in laboratory animals. […] Animals are pretreated with various doses of the test compound. At the time of peak effect (TPE) of the test compound, a dose of Metrazol that induce convulsions in 97% of animals (CD97: 85 mg/kg mice) is injected into a loose fold of skin in the midline of the neck. The animals are placed in isolation cages to minimize stress (Swinyard et al., 1961) and observed for the next 30 minutes for the presence or absence of a seizure. An episode of clonic spasms, approximately 3-5 seconds, of the fore and/or hindlimbs, jaws, or vibrissae is taken as the endpoint.
In this study, Sprague Dawley rats were used (average weight 150 gm). […] Finally, Group 3 was the solvent control group. These animals were administered the test solvent (methylcellulose 0.5%) as a control. Here methylcellulose was administered i.p. for all 5 days.
On day 5, all animals from each group were tested in the scMet model using the previously determined time of peak effect (TPE) of 15 minutes. Immediately after testing, blood was collected via cardiac puncture. Samples were spun down, plasma was collected and acetonitrile added. Samples were frozen at −80° C. and shipped to a commercial laboratory (Enthalpy) for analysis.

[2] = Plasma levels by LC-MS/MS (tolerance study); type: in vivo, Sprague Dawley rats; conditions: for Conc HZ-166 in plasma, individual subjects: 35.5 mg/kg
Protocol: Immediately after testing, blood was collected via cardiac puncture. Samples were spun down, plasma was collected and acetonitrile added. Samples were frozen at −80° C. and shipped to a commercial laboratory (Enthalpy) for analysis.
Group 3 (8 subjects) was dosed with vehicle only.

[3] = tested on: Metrazol-induced clonic seizures; experiment: Subcutaneous Metrazol test (scMet), rats; type: in vivo
[4] = Toxicity (TOX), minimal motor deficit, rats; type: in vivo; conditions: in vivo; Rat IP
[5] = tested on: Pilocarpine-induced Status; experiment: Pilocarpine-induced status; type: in vivo, rats; conditions: for Pilocarpine-induced Status, Time to Peak Effect, ratio of animals: Time 0 Hrs

SMILES: C#Cc1ccc2c(c1)C(c1ccccn1)=NCc1c(C(=O)OCC)ncn1-2 [Hz166 (106), 8-Acetylenyl-6-pyridin-2-yl-4H-benzo[f]imidazo[1,5-a][1,4]diazepine-3-carboxylic acid ethyl ester]
- protection against scMet induced seizures ([1]; Group 1 chronic dosing, day 5): approximately 40%
- scMet, animals protected/tested ([1]; Group 1 chronic dosing: 35.5 mg/kg ip once daily 5 days, tested day 5 at TPE 15 min, 35.5 mg/kg): 3/8 and 3/8 protected (chronic dosing)
- scMet, animals protected/tested ([1]; Group 2 acute dosing: single 35.5 mg/kg ip dose on day 5, TPE 15 min, 35.5 mg/kg): 1/8 and 1/8 (acute dosing)
- scMet, animals protected/tested ([1]; original preliminary study (different rats), acutely treated group): 5/8
- scMet, animals protected/tested ([1]; original preliminary study (different rats), chronically treated group): 5/8
- tolerance to the anticonvulsant effects ([1]; rats, dosed 5 days at the calculated scMet ED50): didn't develop tolerance; also recorded: did not develop tolerance
- HZ-166, plasma average with outliers excluded ([2]; Group 1 (five days dosing)): 0.334 nmol/mL
- Conc HZ-166 in plasma, individual subjects ([2]; Group 1: HZ-166 35.5 mg/kg ip for five days, blood after test on day 5): 94.3 ng/mL and 85.4 ng/mL and 168 ng/mL and 138 ng/mL and BLQ < (1.00) ng/mL and 118 ng/mL and 198 ng/mL and 30.5 ng/mL
- HZ-166, plasma average with outliers excluded ([2]; Group 2 (day 5 only)): 0.533 nmol/mL
- Conc HZ-166 in plasma, individual subjects ([2]; Group 2: HZ-166 35.5 mg/kg ip on day 5 only): 202 ng/mL and 165 ng/mL and 8.67 ng/mL and 273 ng/mL and 210 ng/mL and 93.3 ng/mL and 176 ng/mL
- ED50 ([3]; Rat IP): 35.5 mg/kg
- scMet, animals protected/tested ([3]; Rat IP, 100 mg/kg, 0.5 hr): 7/8
- scMet, animals protected/tested ([3]; Rat IP, 100 mg/kg, 4.0 hr): 5/8
- ED50 ([3]; Rat PO): 98.5 mg/kg
- scMet, animals protected/tested ([3]; Rat PO, 50 mg/kg, 0.5 h): 4/4
- scMet, animals protected/tested ([3]; Rat PO, 50 mg/kg, 1.0 h): 2/4
- scMet, animals protected/tested ([3]; Rat PO, 50 mg/kg, 2.0 h): 1/4
- scMet, animals protected/tested ([3]; Rat PO, 50 mg/kg, 4.0 h): 0/4
- scMet, animals protected/tested ([3]; Rat PO, 50 mg/kg, […]): 0/4
- TD50 [4]: 95.3 mg/kg

SMILES: C#Cc1ccc2c(c1)C(c1ccccc1F)=NCc1c(C(=O)OCC)ncn1-2 [JY-XHe-053 (15), Ethyl-8-acetyleno-6-(2′-fluorophenyl)-4H-benzo[f]imidazo[1,5-a][1,4]diazepine-3-carboxylate]
- ED50 ([3]; Rat IP): 18.2 mg/kg
- scMet, animals protected/tested ([3]; Rat IP, 100 mg/kg, 0.5 hr): 3/4
- scMet, animals protected/tested ([3]; Rat IP, 100 mg/kg, 4.0 hr): 3/4
- ED50 ([3]; Rat PO): 23.7 mg/kg
- scMet, animals protected/tested ([3]; Rat PO, 40 mg/kg, 4.0 h): 2/4^e
- scMet, animals protected/tested ([3]; Rat PO, 40 mg/kg, 6.0 h): 2/4^e
- scMet, animals protected/tested ([3]; Rat PO, 50 mg/kg, 0.5 h): 3/4
- scMet, animals protected/tested ([3]; Rat PO, 50 mg/kg, 1.0 h): 3/4
- scMet, animals protected/tested ([3]; Rat PO, 50 mg/kg, 2.0 h): 1/4
- scMet, animals protected/tested ([3]; Rat PO, 50 mg/kg, 4.0 h): 4/4
- scMet, animals protected/tested ([3]; Rat PO, 50 mg/kg, […]): 1/4
- TD50 [4]: 69.6 mg/kg

SMILES: C#Cc1ccc2c(c1)C(c1ccccc1)=N[C@H](C)c1nnc(C)n1-2 [SH-TR-CH3 (146), (4R)-8-Ethynyl-1,4-dimethyl-6-phenyl-4H-benzo[f][1,2,4]triazolo[4,3-a][1,4]diazepine]
- Pilocarpine-induced Status, Time to Peak Effect, ratio of animals ([5]; Rats, 100 mg/kg, 0.25 Hr): 0/2
- Pilocarpine-induced Status, Time to Peak Effect, ratio of animals ([5]; Rats, 100 mg/kg, 0.5 Hr): 0/2
- Pilocarpine-induced Status, Time to Peak Effect, ratio of animals ([5]; Rats, 100 mg/kg, 1.0 Hr): 0/2
- Pilocarpine-induced Status, Time to Peak Effect, ratio of animals ([5]; Rats, 100 mg/kg, 2.0 Hr): 0/2
- Pilocarpine-induced Status, Time to Peak Effect, ratio of animals ([5]; Rats, 100 mg/kg, 4.0 Hr): 0/2
- Pilocarpine-induced Status, Time to Peak Effect, ratio of animals ([5]; Rats, 300 mg/kg, 0.25 Hr): 0/2
- Pilocarpine-induced Status, Time to Peak Effect, ratio of animals ([5]; Rats, 300 mg/kg, 0.5 Hr): 0/2
- Pilocarpine-induced Status, Time to Peak Effect, ratio of animals ([5]; Rats, 300 mg/kg, 1.0 Hr): 0/2
- Pilocarpine-induced Status, Time to Peak Effect, ratio of animals ([5]; Rats, 300 mg/kg, 2.0 Hr): 0/2
- Pilocarpine-induced Status, Time to Peak Effect, ratio of animals ([5]; Rats, 300 mg/kg, 4.0 Hr): 0/2
- Pilocarpine-induced Status, Time to Peak Effect, ratio of animals ([5]; Rats, 500 mg/kg, 0.25 Hr, Ataxia noted): 0/2^12
- Pilocarpine-induced Status, Time to Peak Effect, ratio of animals ([5]; Rats, 500 mg/kg, 0.5 Hr, Ataxia noted): 0/2^12
- Pilocarpine-induced Status, Time to Peak Effect, ratio of animals ([5]; Rats, 500 mg/kg, 1.0 Hr, Ataxia noted): 0/2^12
- Pilocarpine-induced Status, Time to Peak Effect, ratio of animals ([5]; Rats, 500 mg/kg, 2.0 Hr, Ataxia noted): 0/2^12
- Pilocarpine-induced Status, Time to Peak Effect, ratio of animals ([5]; Rats, 500 mg/kg, 4.0 Hr): 0/2
- Pilocarpine-induced Status, ratio of animals ([5]; Rats, 600 mg/kg, 0 Hrs post first Stage III seizure): 4/7
- Pilocarpine-induced Status, ratio of animals ([5]; Rats, 1,000 mg/kg, 0.5 Hrs post first Stage III seizure, footnote c: death): 1/7^c
